From the NIST ThermoML archive (doi:10.1016/j.jct.2018.08.013)
“And” between values parts separate entries of the source, which are not always exact repeats. Equal values may be shown once.

Legend:
[1] = xn = mol fraction of the nth substance listed; conditions: 298 K; 100 kPa; Crystal of intercomponent compound 1; X-ray diffraction; x2 = 0.542
[2] = specific heat capacity at constant pressure; xn = mol fraction of the nth substance listed; conditions: 100 kPa, Crystal of intercomponent compound 1, x2 = 0.542

[Te] [tellurium] + [In]
Conditions	mass density [kg/m3]
[1]	6307

[2]
Conditions	specific heat capacity
10.11 K, relaxation calorimetry	13.3 J/K/kg and 13.26 J/K/kg
10.12 K, relaxation calorimetry	13.3 J/K/kg
12.12 K, relaxation calorimetry	20.6 J/K/kg and 20.59 J/K/kg
12.13 K, relaxation calorimetry	20.65 J/K/kg
14.14 K, relaxation calorimetry	28.68 J/K/kg and 28.67 J/K/kg and 28.69 J/K/kg
16.15 K, relaxation calorimetry	36.99 J/K/kg
16.16 K, relaxation calorimetry	36.96 J/K/kg and 37.07 J/K/kg
18.17 K, relaxation calorimetry	45.25 J/K/kg
18.18 K, relaxation calorimetry	45.21 J/K/kg
20.18 K, relaxation calorimetry	53.21 J/K/kg
20.19 K, relaxation calorimetry	53.01 J/K/kg and 53.25 J/K/kg
22.2 K, relaxation calorimetry	60.8 J/K/kg and 61.01 J/K/kg and 60.84 J/K/kg
24.22 K, relaxation calorimetry	68.02 J/K/kg and 68.1 J/K/kg
26.23 K, relaxation calorimetry	74.95 J/K/kg
26.24 K, relaxation calorimetry	74.91 J/K/kg and 74.95 J/K/kg
28.25 K, relaxation calorimetry	81.26 J/K/kg and 81.31 J/K/kg
30.27 K, relaxation calorimetry	87.16 J/K/kg
35.3 K, relaxation calorimetry	101.02 J/K/kg
35.31 K, relaxation calorimetry	100.94 J/K/kg and 100.9 J/K/kg
40.34 K, relaxation calorimetry	112.78 J/K/kg and 112.99 J/K/kg
40.35 K, relaxation calorimetry	112.74 J/K/kg
45.38 K, relaxation calorimetry	122.93 J/K/kg and 123.09 J/K/kg
45.39 K, relaxation calorimetry	122.76 J/K/kg
50.41 K, relaxation calorimetry	132.54 J/K/kg
50.42 K, relaxation calorimetry	132.13 J/K/kg
50.43 K, relaxation calorimetry	132.04 J/K/kg
55.43 K, relaxation calorimetry	140.42 J/K/kg
55.45 K, relaxation calorimetry	139.92 J/K/kg
55.47 K, relaxation calorimetry	139.72 J/K/kg
60.47 K, relaxation calorimetry	146.93 J/K/kg
60.49 K, relaxation calorimetry	146.4 J/K/kg
60.51 K, relaxation calorimetry	146.44 J/K/kg
65.49 K, relaxation calorimetry	153.78 J/K/kg
65.53 K, relaxation calorimetry	152.79 J/K/kg
65.56 K, relaxation calorimetry	152.5 J/K/kg
70.51 K, relaxation calorimetry	159.39 J/K/kg
70.57 K, relaxation calorimetry	158.16 J/K/kg
70.61 K, relaxation calorimetry	157.78 J/K/kg
75.55 K, relaxation calorimetry	164.01 J/K/kg
75.61 K, relaxation calorimetry	162.86 J/K/kg
75.65 K, relaxation calorimetry	162.69 J/K/kg
80.58 K, relaxation calorimetry	169.46 J/K/kg
80.64 K, relaxation calorimetry	167.77 J/K/kg
80.7 K, relaxation calorimetry	167.02 J/K/kg
85.6 K, relaxation calorimetry	173.13 J/K/kg
85.68 K, relaxation calorimetry	172.14 J/K/kg
85.74 K, relaxation calorimetry	170.65 J/K/kg
90.65 K, relaxation calorimetry	176.64 J/K/kg
90.72 K, relaxation calorimetry	175.44 J/K/kg
90.77 K, relaxation calorimetry	175.19 J/K/kg
95.67 K, relaxation calorimetry	179.52 J/K/kg
95.75 K, relaxation calorimetry	178.16 J/K/kg
95.8 K, relaxation calorimetry	177.96 J/K/kg
100.78 K, relaxation calorimetry	180.43 J/K/kg
100.82 K, relaxation calorimetry	179.89 J/K/kg
100.89 K, relaxation calorimetry	181.75 J/K/kg
106.78 K, relaxation calorimetry	184.18 J/K/kg
106.86 K, relaxation calorimetry	182.66 J/K/kg
106.88 K, relaxation calorimetry	182.86 J/K/kg
113.77 K, relaxation calorimetry	186.45 J/K/kg
113.82 K, relaxation calorimetry	185.55 J/K/kg
113.85 K, relaxation calorimetry	185.13 J/K/kg
120.77 K, relaxation calorimetry	188.39 J/K/kg
120.8 K, relaxation calorimetry	188.64 J/K/kg
120.84 K, relaxation calorimetry	187.28 J/K/kg
127.76 K, relaxation calorimetry	189.79 J/K/kg
127.78 K, relaxation calorimetry	190.45 J/K/kg
127.81 K, relaxation calorimetry	189.51 J/K/kg
134.73 K, relaxation calorimetry	191.98 J/K/kg
134.75 K, relaxation calorimetry	191.11 J/K/kg
134.77 K, relaxation calorimetry	191.32 J/K/kg
141.7 K, relaxation calorimetry	193.51 J/K/kg
141.73 K, relaxation calorimetry	192.35 J/K/kg
141.74 K, relaxation calorimetry	193.09 J/K/kg
148.67 K, relaxation calorimetry	194.87 J/K/kg
148.71 K, relaxation calorimetry	194.62 J/K/kg and 193.75 J/K/kg
155.61 K, relaxation calorimetry	195.65 J/K/kg
155.64 K, relaxation calorimetry	195.94 J/K/kg and 195.82 J/K/kg
162.58 K, relaxation calorimetry	197.26 J/K/kg
162.62 K, relaxation calorimetry	197.38 J/K/kg
169.55 K, relaxation calorimetry	198.54 J/K/kg
169.58 K, relaxation calorimetry	198.37 J/K/kg
169.59 K, relaxation calorimetry	198.42 J/K/kg
176.53 K, relaxation calorimetry	198.87 J/K/kg
176.56 K, relaxation calorimetry	198.83 J/K/kg
176.57 K, relaxation calorimetry	198.87 J/K/kg
183.5 K, relaxation calorimetry	199.69 J/K/kg
183.54 K, relaxation calorimetry	199.69 J/K/kg
190.47 K, relaxation calorimetry	200.4 J/K/kg
190.51 K, relaxation calorimetry	200.44 J/K/kg and 200.48 J/K/kg
197.43 K, relaxation calorimetry	200.56 J/K/kg
197.47 K, relaxation calorimetry	200.68 J/K/kg and 200.77 J/K/kg
204.39 K, relaxation calorimetry	201.18 J/K/kg
204.43 K, relaxation calorimetry	201.3 J/K/kg
204.44 K, relaxation calorimetry	201.34 J/K/kg
211.34 K, relaxation calorimetry	201.67 J/K/kg
211.38 K, relaxation calorimetry	201.76 J/K/kg
211.39 K, relaxation calorimetry	201.59 J/K/kg
218.29 K, relaxation calorimetry	201.76 J/K/kg
218.34 K, relaxation calorimetry	201.92 J/K/kg
225.27 K, relaxation calorimetry	202.09 J/K/kg
225.31 K, relaxation calorimetry	202.29 J/K/kg and 202.17 J/K/kg
226.53 K, relaxation calorimetry	200.85 J/K/kg
226.54 K, relaxation calorimetry	201.01 J/K/kg
231.55 K, relaxation calorimetry	201.3 J/K/kg
231.56 K, relaxation calorimetry	201.22 J/K/kg
232.22 K, relaxation calorimetry	202.38 J/K/kg
232.27 K, relaxation calorimetry	202.33 J/K/kg
232.28 K, relaxation calorimetry	202.29 J/K/kg
236.56 K, relaxation calorimetry	201.39 J/K/kg
236.57 K, relaxation calorimetry	201.47 J/K/kg
239.17 K, relaxation calorimetry	202 J/K/kg
239.24 K, relaxation calorimetry	202.09 J/K/kg and 202.05 J/K/kg
241.58 K, relaxation calorimetry	201.67 J/K/kg
241.6 K, relaxation calorimetry	201.26 J/K/kg
246.14 K, relaxation calorimetry	201.88 J/K/kg
246.19 K, relaxation calorimetry	202.09 J/K/kg and 202.05 J/K/kg
246.51 K, relaxation calorimetry	201.51 J/K/kg
246.52 K, relaxation calorimetry	201.92 J/K/kg
251.63 K, relaxation calorimetry	202.09 J/K/kg
251.64 K, relaxation calorimetry	202 J/K/kg
253.09 K, relaxation calorimetry	202.17 J/K/kg
253.15 K, relaxation calorimetry	202.13 J/K/kg and 202.17 J/K/kg
256.55 K, relaxation calorimetry	202.29 J/K/kg
256.56 K, relaxation calorimetry	202.17 J/K/kg
260.04 K, relaxation calorimetry	202.25 J/K/kg
260.1 K, relaxation calorimetry	202.25 J/K/kg and 202.29 J/K/kg
261.55 K, relaxation calorimetry	202.25 J/K/kg
261.57 K, relaxation calorimetry	202.13 J/K/kg
266.18 K, Extra sensitive DSC	203.98 J/K/kg
270 K, Extra sensitive DSC	203.98 J/K/kg
275 K, Extra sensitive DSC	204.48 J/K/kg
280 K, Extra sensitive DSC	204.89 J/K/kg
285 K, Extra sensitive DSC	205.18 J/K/kg
290 K, Extra sensitive DSC	205.59 J/K/kg
295 K, Extra sensitive DSC	206.09 J/K/kg
300 K, Extra sensitive DSC	206.5 J/K/kg
305 K, Extra sensitive DSC	207.08 J/K/kg
310 K, Extra sensitive DSC	207.28 J/K/kg
315 K, Extra sensitive DSC	207.28 J/K/kg
320 K, Extra sensitive DSC	207.28 J/K/kg
325 K, Extra sensitive DSC	207.49 J/K/kg
328.56 K, Extra sensitive DSC	207.7 J/K/kg
332.56 K, Extra sensitive DSC	209.1 J/K/kg
335.17 K, Extra sensitive DSC	209.43 J/K/kg
336.9 K, Extra sensitive DSC	209.39 J/K/kg
339.51 K, Extra sensitive DSC	209.35 J/K/kg
342.11 K, Extra sensitive DSC	209.39 J/K/kg
344.71 K, Extra sensitive DSC	209.18 J/K/kg
347.32 K, Extra sensitive DSC	209.02 J/K/kg
349.92 K, Extra sensitive DSC	208.77 J/K/kg
352.53 K, Extra sensitive DSC	208.4 J/K/kg
355.13 K, Extra sensitive DSC	208.48 J/K/kg
357.73 K, Extra sensitive DSC	208.27 J/K/kg
358.6 K, Extra sensitive DSC	208.15 J/K/kg
